Laboratory results as given in US9498483B2, “2,3,5-trisubstituted thiophene compounds and uses thereof” (priority 2010, dated 2016).

Key:
[1] = tested on: HCV replicon I389luc-ubi-neo/NS3-3′/ET in ET (Huh-lucubineo-ET) cells; experiment: Replicon assay (Biological Example 2), luciferase readout; assay type: cell-based; details: Hepatitis C virus
Summary of the method: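 EC50 values come from Hill fits of % inhibition of replicon-driven firefly luciferase, relative to no-compound wells. Compounds were serially diluted (10 points, 3-fold, 0.1 nM–50 μM final, 0.5% DMSO) onto ET replicon cells and read after 48 h.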

[2] = biological target: T1, HCV polymerase (Hepatitis C virus genotype 1b, UniProt Q9WMX2); experiment: Polymerase assay of Biological Example 1 (IC50 values of Table 3); assay type: biochemical; details: IC50 values of Table 3, polymerase assay of Biological Example 1; read-out: NS5B-enzyme3
T1 construct: (His)6 (C); made in house; host or cells: XL-1 cells (E. coli, by own knowledge)

[3] = ET cells, luciferase activity 48 hours after compound

Compound | IC50 ([1]; between 100 nM and 5.0 uM) [nM] | IC50 [2] [nM] | IC50 [1, 3] [nM]
O=C(O)c1sc(-c2ccccc2)cc1N1C(=O)CN(S(=O)(=O)c2ccc(-c3ccccc3)cc2)CC1C1CCCCC1 (centres unmarked) [Compound 60, 3-[4-(Biphenyl-4-sulfonyl)-2-cyclohexyl-6-oxo-piperazin-1-yl]-5-phenyl-thiophene-2-carboxylic acid] | 100 to 5000 | 9 | 
Cn1ccc2cc(S(=O)(=O)N3CC(=O)N(c4cc(-c5ccccc5)sc4C(=O)O)C(C4CCCCC4)C3)ccc21 (centres unmarked) [Compound 61, 3-[2-Cyclohexyl-4-(1-methyl-1H-indole-5-sulfonyl)-6-oxo-piperazin-1-yl]-5-phenyl-thiophene-2-carboxylic acid] | 100 to 5000 | 3 | 
Cn1ccc(S(=O)(=O)N2CC(=O)N(c3cc(-c4ccccc4)sc3C(=O)O)C(C3CCCCC3)C2)n1 (centres unmarked) [Compound 62, 3-[2-Cyclohexyl-4-(1-methyl-1H-pyrazole-3-sulfonyl)-6-oxo-piperazin-1-yl]-5-phenyl-thiophene-2-carboxylic acid] | 100 to 5000 | 11 | 
Cc1nccc(-c2cccc(S(=O)(=O)N3CC(=O)N(c4cc(-c5ccccc5)sc4C(=O)O)C(C4CCCCC4)C3)c2)n1 (centres unmarked) [Compound 63, 3-{2-Cyclohexyl-4-[3-(2-methyl-pyrimidin-4-yl)-benzenesulfonyl]-6-oxo-piperazin-1-yl}-5-phenyl-thiophene-2-carboxylic acid] | 100 to 5000 | 42 | 
Cn1ccc2c(S(=O)(=O)N3CC(=O)N(c4cc(-c5ccccc5)sc4C(=O)O)C(C4CCCCC4)C3)cccc21 (centres unmarked) [Compound 64, 3-[2-Cyclohexyl-4-(1-methyl-1H-indole-4-sulfonyl)-6-oxo-piperazin-1-yl]-5-phenyl-thiophene-2-carboxylic acid] | 100 to 5000 | 31 | 
O=C(O)c1sc(-c2ccccc2)cc1N1C(=O)CN(S(=O)(=O)c2cccc(-c3ccccc3)c2)CC1C1CCCCC1 (centres unmarked) [Compound 65, 3-[4-(Biphenyl-3-sulfonyl)-2-cyclohexyl-6-oxo-piperazin-1-yl]-5-phenyl-thiophene-2-carboxylic acid] | 100 to 5000 | 45 | 
O=C(O)c1sc(-c2ccccc2)cc1N1C(=O)CN(S(=O)(=O)c2ccc(F)c(C(F)(F)F)c2)CC1C1CCCCC1 (centres unmarked) [Compound 66, 3-[2-Cyclohexyl-4-(4-fluoro-3-trifluoromethyl-benzenesulfonyl)-6-oxo-piperazin-1-yl]-5-phenyl-thiophene-2-carboxylic acid] | 100 to 5000 | 49 | 
O=C(O)c1sc(-c2ccccc2F)cc1N1C(=O)CCCC1C1CCCCC1 (centres unmarked) [Compound 67, 3-(2-Cyclohexyl-6-oxo-piperidin-1-yl)-5-(2-fluoro-phenyl)-thiophene-2-carboxylic acid] | 100 to 5000 | 183 | 
CCN(CC)c1ccc(S(=O)(=O)N2CC(=O)N(c3cc(-c4ccccc4)sc3C(=O)O)C(C3CCCCC3)C2)cn1 (centres unmarked) [Compound 69, 3-[2-Cyclohexyl-4-(6-diethylamino-pyridine-3-sulfonyl)-6-oxo-piperazin-1-yl]-5-phenyl-thiophene-2-carboxylic acid] |  | 2 | ≤ 100
O=C(O)c1sc(-c2ccc(F)cc2)cc1N1C(=O)CCCC1C1CCCCC1 (centres unmarked) [Compound 70, 3-(2-Cyclohexyl-6-oxo-piperidin-1-yl)-5-(4-fluoro-phenyl)-thiophene-2-carboxylic acid] | 100 to 5000 | 67 | 
Cc1ccc(-c2cc(N3C(=O)CCCC3C3CCCCC3)c(C(=O)O)s2)cc1 (centres unmarked) [Compound 71, 3-(2-Cyclohexyl-6-oxo-piperidin-1-yl)-5-p-tolyl-thiophene-2-carboxylic acid] | 100 to 5000 | 52 | 
CCc1ccc(-c2cc(N3C(=O)CCCC3C3CCCCC3)c(C(=O)O)s2)cc1 (centres unmarked) [Compound 72, 3-(2-Cyclohexyl-6-oxo-piperidin-1-yl)-5-(4-ethyl-phenyl)-thiophene-2-carboxylic acid] | 100 to 5000 | 64 | 
O=C(O)c1sc(-c2ccc(Cl)cc2)cc1N1C(=O)CCCC1C1CCCCC1 (centres unmarked) [Compound 73, 5-(4-Chloro-phenyl)-3-(2-cyclohexyl-6-oxo-piperidin-1-yl)-thiophene-2-carboxylic acid] | 100 to 5000 | 21 | 
O=C(O)c1sc(-c2ccccc2)cc1N1C(=O)CN(S(=O)(=O)c2ccc(N3CCC3)nc2)CC1C1CCCCC1 (centres unmarked) [Compound 74, 3-[4-(6-Azetidin-1-yl-pyridine-3-sulfonyl)-2-cyclohexyl-6-oxo-piperazin-1-yl]-5-phenyl-thiophene-2-carboxylic acid] |  | 12 | ≤ 100
O=C(O)c1sc(-c2ccccc2)cc1N1C(=O)CN(S(=O)(=O)c2ccc(NC3CCCCC3)nc2)CC1C1CCCCC1 (centres unmarked) [Compound 75, 3-[2-Cyclohexyl-4-(6-cyclohexylamino-pyridine-3-sulfonyl)-6-oxo-piperazin-1-yl]-5-phenyl-thiophene-2-carboxylic acid] |  | 8 | ≤ 100
O=C(O)c1sc(-c2ccccc2)cc1N1C(=O)CN(S(=O)(=O)c2ccc(N3CCCC3)nc2)CC1C1CCCCC1 (centres unmarked) [Compound 76, 3-[2-Cyclohexyl-6-oxo-4-(6-pyrrolidin-1-yl-pyridine-3-sulfonyl)-piperazin-1-yl]-5-phenyl-thiophene-2-carboxylic acid] |  | 4 | ≤ 100
CCCN(CCC)c1ccc(S(=O)(=O)N2CC(=O)N(c3cc(-c4ccccc4)sc3C(=O)O)C(C3CCCCC3)C2)cn1 (centres unmarked) [Compound 77, 3-[2-Cyclohexyl-4-(6-dipropylamino-pyridine-3-sulfonyl)-6-oxo-piperazin-1-yl]-5-phenyl-thiophene-2-carboxylic acid] |  | 3 | ≤ 100
COCCNc1ccc(S(=O)(=O)N2CC(=O)N(c3cc(-c4ccccc4)sc3C(=O)O)C(C3CCCCC3)C2)cn1 (centres unmarked) [Compound 78, 3-{2-Cyclohexyl-4-[6-(2-methoxy-ethylamino)-pyridine-3-sulfonyl]-6-oxo-piperazin-1-yl}-5-phenyl-thiophene-2-carboxylic acid] |  | 5 | ≤ 100
O=C(O)c1sc(-c2ccccc2)cc1N1C(=O)CN(S(=O)(=O)c2ccc(N3CCSCC3)nc2)CC1C1CCCCC1 (centres unmarked) [Compound 79, 3-[2-Cyclohexyl-6-oxo-4-(6-thiomorpholin-4-yl-pyridine-3-sulfonyl)-piperazin-1-yl]-5-phenyl-thiophene-2-carboxylic acid] |  | 4 | ≤ 100
COCCN(CCOC)c1ccc(S(=O)(=O)N2CC(=O)N(c3cc(-c4ccccc4)sc3C(=O)O)C(C3CCCCC3)C2)cn1 (centres unmarked) [Compound 80, 3-(4-{6-[Bis-(2-methoxy-ethyl)-amino]-pyridine-3-sulfonyl}-2-cyclohexyl-6-oxo-piperazin-1-yl)-5-phenyl-thiophene-2-carboxylic acid] |  | 6 | ≤ 100
CN(C)CCNc1ccc(S(=O)(=O)N2CC(=O)N(c3cc(-c4ccccc4)sc3C(=O)O)C(C3CCCCC3)C2)cn1 (centres unmarked) [Compound 81, 3-{2-Cyclohexyl-4-[6-(2-dimethylamino-ethylamino)-pyridine-3-sulfonyl]-6-oxo-piperazin-1-yl}-5-phenyl-thiophene-2-carboxylic acid] |  | 9 | ≤ 100
O=C(O)c1sc(-c2ccccc2)cc1N1C(=O)CN(S(=O)(=O)c2ccc(NC3CCCC3)nc2)CC1C1CCCCC1 (centres unmarked) [Compound 82, 3-[2-Cyclohexyl-4-(6-cyclopentylamino-pyridine-3-sulfonyl)-6-oxo-piperazin-1-yl]-5-phenyl-thiophene-2-carboxylic acid] |  | 6 | ≤ 100
